Data taken from PubChem BioAssay (NCI).
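Growth conditions: 96-well plates. Treatment: test compound, 48 hours, 5 concentrations. Analysis: linear interpolation between bracketing concentrations; unreached endpoints set to highest concentration. GI50 = concentration required for 50% inhibition of growth. The concentration for full growth arrest is given as TGI.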

Key:
Assay in all cases: NCI-60 cell line screen, 48 h
MDA-MB-435 = tested on: MDA-MB-435
NCI-H460 lung = tested on: NCI-H460 lung
NCI/ADR-RES ovarian = tested on: NCI/ADR-RES ovarian
A549 NSCLC = tested on: A549 NSCLC
NCI-H522 lung = tested on: NCI-H522 lung
SN12C renal = tested on: SN12C renal
HOP-92 NSCLC = tested on: HOP-92 NSCLC
SF-539 CNS = tested on: SF-539 CNS
K-562 leukemia = tested on: K-562 leukemia
MDA-MB-231 breast = tested on: MDA-MB-231 breast
PC-3 prostate = tested on: PC-3 prostate
M14 melanoma = tested on: M14 melanoma
UACC-62 melanoma = tested on: UACC-62 melanoma
CCRF-CEM leukemia = tested on: CCRF-CEM leukemia
OVCAR-3 ovarian = tested on: OVCAR-3 ovarian
RPMI-8226 leukemia = tested on: RPMI-8226 leukemia
KM12 colon = tested on: KM12 colon
UO-31 renal = tested on: UO-31 renal
MALME-3M melanoma = tested on: MALME-3M melanoma
IGROV1 ovarian = tested on: IGROV1 ovarian
EKVX NSCLC = tested on: EKVX NSCLC
HCT-15 colon = tested on: HCT-15 colon
ACHN renal = tested on: ACHN renal
SNB-75 CNS = tested on: SNB-75 CNS
T-47D breast = tested on: T-47D breast
SF-295 CNS = tested on: SF-295 CNS

COc1cc2nccc(Oc3ccc(NC(=O)C4(C(=O)Nc5ccc(F)cc5)CC4)cc3)c2cc1OC(=O)c1ccc(N)cc1
GI50 (MDA-MB-435): 2180 nM | TGI (MDA-MB-435): > 100000 nM | GI50 (NCI-H460 lung): 3490 nM | TGI (NCI-H460 lung): 54200 nM | GI50 (NCI/ADR-RES ovarian): 3740 nM | TGI (NCI/ADR-RES ovarian): > 100000 nM | GI50 (A549 NSCLC): 3110 nM | TGI (A549 NSCLC): > 100000 nM | GI50 (NCI-H522 lung): 2650 nM | TGI (NCI-H522 lung): > 100000 nM | GI50 (SN12C renal): 1390 nM | TGI (SN12C renal): > 100000 nM | GI50 (HOP-92 NSCLC): 200 nM | TGI (HOP-92 NSCLC): 2420 nM | GI50 (SF-539 CNS): 246 nM | TGI (SF-539 CNS): 2040 nM | GI50 (K-562 leukemia): 1090 nM | TGI (K-562 leukemia): 4910 nM | GI50 (MDA-MB-231 breast): 1980 nM | TGI (MDA-MB-231 breast): 6530 nM | GI50 (PC-3 prostate): 2500 nM | TGI (PC-3 prostate): > 100000 nM | GI50 (M14 melanoma): 2790 nM | TGI (M14 melanoma): > 100000 nM | GI50 (UACC-62 melanoma): 2850 nM | TGI (UACC-62 melanoma): > 100000 nM | GI50 (CCRF-CEM leukemia): 2600 nM | TGI (CCRF-CEM leukemia): > 100000 nM | GI50 (OVCAR-3 ovarian): 4360 nM | TGI (OVCAR-3 ovarian): > 100000 nM | GI50 (RPMI-8226 leukemia): 2660 nM | TGI (RPMI-8226 leukemia): > 100000 nM | GI50 (KM12 colon): 93.6 nM | TGI (KM12 colon): > 100000 nM | GI50 (UO-31 renal): 1580 nM | TGI (UO-31 renal): 6580 nM | GI50 (MALME-3M melanoma): 2470 nM | TGI (MALME-3M melanoma): > 100000 nM | GI50 (IGROV1 ovarian): 6920 nM | TGI (IGROV1 ovarian): > 100000 nM | GI50 (EKVX NSCLC): 5310 nM | TGI (EKVX NSCLC): > 100000 nM | GI50 (HCT-15 colon): 2170 nM | TGI (HCT-15 colon): > 100000 nM | GI50 (ACHN renal): 3730 nM | TGI (ACHN renal): > 100000 nM | GI50 (SNB-75 CNS): 199 nM | TGI (SNB-75 CNS): 1390 nM | GI50 (T-47D breast): 2920 nM | TGI (T-47D breast): > 100000 nM | GI50 (SF-295 CNS): 262 nM
